Laboratory results published in patent US9120861B2, “Functional enhancement of antimicrobials” (Mississippi State University, priority 2008, dated 2015).
“Also recorded” adds a separate entry of the source.

Key:
[1] = thin layer chromatography (TLC) lipid II binding assay; settings: iodine stain; FIG. 8 and FIG. 9
Description: In FIG. 8 and FIG. 9, a thin layer chromatography (TLC) lipid II binding assay for native and modified nisin A and gallidermin is shown, respectively. The method of the present invention enables direct visualization for the loss of lipid II binding. […] Nisin is not as stable as gallidermin at higher temperatures.

[2] = test system: M. luteus; test: bioassay plate overlaid with M. luteus (bacterial clearing); assay type: cell-based; settings: 5 μL spotted onto a plate overlaid with M. luteus; FIG. 6
Procedure: We performed a 2-mercaptoethanol addition to mutacin 1140 at pH 7.3 in Tris buffer at room temperature for 2 hours. FIG. 5 is a RP-HPLC chromatogram of the native mutacin 1140, designated by the black line with triangles, overlaid on the chromatogram of the 2-mercaptoethanol modified mutacin 1140 (B-Me mutacin), which is designated by the grey line with circles. The modification changes the retention time of the native molecule to the left, a slightly more hydrophilic solvent (more water relative to acetonitrile). The large peak in the flow through was determined, by smell, to be 2-mercaptoethanol. The two small sharp peaks following the flow peak, which both have an absorbance in the 280 nm range, appears to be contaminants in the 2-mercaptoethanol solution. They also appeared in Nisin A modified by the same 2-mercaptoethanol labeling procedure. Nisin has no aromatic residues to account for this absorbance. […] In the future, these 2-mercatoethanol peaks will be removed by washing the sample with ice cold ether, which will extract the thiol compound leaving our peptide in solution. We spotted 5 μL of the native mutacin and the B-Me mutacin onto a plate overlaid with M. luteus. […] We also performed the same reaction with ethanethiol following the same procedure outline above. […]

Substance	lipid II binding (retention of lipid II at the origin of the TLC plate) [1]	bactericidal activity (bacterial clearing, inhibition of bacterial growth) [2]
gallidermin	retain lipid II at the origin	–
mutacin 1140	–	bacterial clearing
ethanethiol labeled nisin: nisin following addition of the organosulfur compound ethanethiol	maintains lipid II binding activity; also recorded: diminished capacity to retain lipid II at the origin	–
nisin A	retain lipid II at the origin	–
